Test results: patent US10220008B2, “Treatment and prevention of stroke and other neurological disorders” (STC.UNM, priority 2013, dated 2019)
Entries after “also recorded” stand apart in the source; their conditions may differ. Counter-ions that a name gives are not always drawn.

Columns and labels:
primary cortical neurons [1] = experiment: High-throughput oxygen-glucose deprivation (OGD) screen of the Prestwick Chemical Library, CytotoxGlo dead/live cell protease ratio; assay type: cell-based, Spraque-Dawley rat; conditions: pretreatment, 10 μM, pure cortical neurons
Description: The Prestwick Chemical Library (Prestwick Chemical) was screened for neuroprotection in OGD by pre-treating 7 DIV cortical neurons in 96-well dishes with 10 μM compounds for 30 minutes. All liquid handling was automated and performed by a Beckman Coulter Biomek NX multichannel pipettor. The pretreatment medium was transferred to a clean plate for storage and was kept at 37° C. in a 5% CO2 environment during the OGD exposure. After pretreatment, cells were washed 3 times with deoxygenated glucose-free Hank's buffered saline solution (HBSS), pH 7.4, to remove glucose and oxygen and were covered with 100 μl HBSS. HBSS was deoxygenated in a gas washing bottle with 60 liters of 95% nitrogen, 5% CO2 per 250 ml HBSS. HBSS was maintained at 37° C. during deoxygenation in a water bath. Compounds were added to wells and plates were sealed with sealing tape and placed in a 37° C. incubator for 2 hours (OGD). After 2 hours, HBSS was removed and pretreatment medium was returned to the wells. After 24 hours, neuronal death was quantified using CytotoxGlo reagents (Promega) and a Victor^3 V luminometer (Perkin Elmer) according to the manufacturer's instructions. Eight wells per dish were used as DMSO-treated vehicle-only controls. […]

primary cortical neurons [2] = experiment: Secondary screening: TUNEL apoptosis assay after 2 hours OGD, compounds given at or after reoxygenation; assay type: cell-based, Spraque-Dawley rat; conditions: for dose providing maximum neuroprotection against OGD-induced apoptosis (optimal dose): at reoxygenation after 2 hours OGD; for neuroprotection when administered after reoxygenation onset (time course): optimal dose given 0, 15, 30, 60 minutes after reoxygenation onset after 2 hours OGD
Description: Cortical neurons were obtained from Spraque-Dawley rat embryos at day 18 of gestation. Cortices were triturated and pre-plated 4 times for 30 minutes in 150 mm vacuum-plasma treated dishes (BD). During these pre-plating steps, primarily non-neuronal cells adhere to the dish, thereby enriching the neuronal population. Enriched neurons were plated in Neurobasal medium containing 2% fetal bovine serum (FBS), 25 μM Glutamax, and penicillin-streptomycin (Gibco) in poly-D-lysine-coated white clear-bottomed 96-well plates or 24-well plates (Becton-Dickinson) at a density of 50×10^3/cm^2. Twenty-four hours later (1 day in vitro, 1 DIV), 50% of the medium was replaced with Neurobasal medium, 2% B27 (Gibco), and 4 μM cytosine arabinoside (AraC) (2 μM AraC final). At 5 DIV, 50% of the medium was replaced with Neurobasal, 2% B27. At 7 DIV, cortical cultures were 98% neurons as assessed by microtubule-associated protein 2 (MAP2) antibody labeling and flow cytometry analysis (data not shown). In vitro experiments were performed in quadruplicate and results are shown as means with standard deviation.
Neuroprotection by candidate compounds was assayed by measurement of apoptosis using terminal deoxynucleotidyl transferase dUTP nick end labeling (TUNEL) reagents as described previously.^6 At 7 DIV, primary neurons grown on poly-D-lysine-coated 22 mm-diameter cover slips in 24-well plates underwent 2 hours of OGD and were treated with a range of doses of each compound at reoxygenation. Compounds providing greater than 2-fold protection over vehicle were then administered at the optimal dose after OGD at intervals of 0, 15, 30, and 60 minutes post-reoxygenation.

[3] = test system: spontaneously hypertensive rats (SHR); experiment: Middle cerebral artery occlusion (MCAO) model of transient focal ischemia; assay type: in vivo, rat
From the text: All animal procedures were approved by the University of New Mexico Institutional Animal Care and Use Committee and were in compliance with federal guidelines. Male spontaneously hypertensive rats (SHR) weighing 290-300 g were obtained from Charles River Laboratories. Animals were anesthetized with 2% isoflurane inhalant during all surgical procedures. The right common carotid artery (CCA) was ligated approximately 6 mm caudal to the bifurcation of the external and internal carotid arteries. With a vascular clamp in place on the CCA immediately caudal to the bifurcation, an incision was made in the CCA 5 mm caudal to the clamp and a nylon suture (Doccol Corporation) 30 mm in length with a 2-3 mm silicone coated tip (0.39 mm diameter) was advanced into the CCA lumen and secured in place with 2 4-0 silk sutures spaced 3 mm apart and tied loosely around the CCA caudal to the clamp. The clamp was removed and the suture advanced into the internal carotid artery until resistance was felt. In this position, the filament occludes the MCA origin and MCA territory becomes ischemic. The suture was secured with the 2 silk sutures around the CCA. […] Edema-corrected infarct volume was calculated by subtracting the area of non-infarcted tissue in the ipsilateral hemisphere from the total volume of the contralateral hemisphere. Infarct volume was quantified using Image J software.

SMILES	neuroprotection in the high-throughput screen (in words) (primary cortical neurons [1])	dose providing maximum neuroprotection against OGD-induced apoptosis (optimal dose) (primary cortical neurons [2]; 0.01 to 100 nM tested) [nM]	neuroprotection when administered after reoxygenation onset (time course) (primary cortical neurons [2])	also measured
CC(C)(C)NCC(O)c1cc(Cl)c(N)c(Cl)c1 (centres unmarked) [clenbuterol]	not identified as a neuroprotective compound	–	–	–
CN1CCN2c3ccccc3Cc3ccccc3C2C1 (centres unmarked) [Mianserine hydrochloride]	highly protective	–	–	neuroprotection in the secondary screen (in words) (primary cortical neurons [2]; given at reoxygenation): ineffective
CCNCC(O)c1cccc(O)c1 (centres unmarked) [Etilefrine hydrochloride]	–	1	–	neuroprotection when administered after reoxygenation onset (time course) (primary cortical neurons [2]; listed as etilifrine, hydrochloride): significantly decreased; also recorded: significant decrease in neuroprotection
C[C@H](COc1ccccc1)N[C@H](C)[C@H](O)c1ccc(O)cc1 (racemic) [Isoxsuprine hydrochloride, 4-{1-hydroxy-2-[(1-methyl-2-phenoxyethyl)amino]propyl}phenol]	–	1	no loss of efficacy; also recorded: no decrease in neuroprotection; also recorded: no loss of neuroprotection	total edema-corrected infarct volume ([3]; 1 mg/kg IV at onset of reperfusion after 90-minute MCAO, 24 hours reperfusion, vehicle 279±25, n=7): 137±18 mm^3; reduction of infarct volume versus vehicle ([3]; single dose 1 mg/kg IV at reperfusion): reduced infarct volume by half
NC(=O)OCC(O)COc1ccc(Cl)cc1 (centres unmarked) [Chlorphenesin carbamate]	–	–	no decrease in neuroprotection; also recorded: no loss of neuroprotection	dose providing maximum neuroprotection against OGD-induced apoptosis (optimal dose) (primary cortical neurons [2]; 100 to 300 μM tested): 200000 nM
